Results as given in patent publication US8791102B2, “Acetanilide sphingosine-1-phosphate receptor antagonists” (Exelixis, Inc., priority 2008, dated 2014).

Target: T1, human S1P1 receptors (Homo sapiens, UniProt P21453)
T1 construct: host or cells: HEK293
Assay: S1P1R antagonist assay (fluorescent membrane potential dye, cAMP readout)
Format: cell-based
Details: HEK293 cells expressing human S1P1 receptors and CNG channel; 500 nM NECA; S1P1R agonist 10 nM; 90 minutes; read-out: EC50 or IC50 value

T1 sequence (P21453 whole entry): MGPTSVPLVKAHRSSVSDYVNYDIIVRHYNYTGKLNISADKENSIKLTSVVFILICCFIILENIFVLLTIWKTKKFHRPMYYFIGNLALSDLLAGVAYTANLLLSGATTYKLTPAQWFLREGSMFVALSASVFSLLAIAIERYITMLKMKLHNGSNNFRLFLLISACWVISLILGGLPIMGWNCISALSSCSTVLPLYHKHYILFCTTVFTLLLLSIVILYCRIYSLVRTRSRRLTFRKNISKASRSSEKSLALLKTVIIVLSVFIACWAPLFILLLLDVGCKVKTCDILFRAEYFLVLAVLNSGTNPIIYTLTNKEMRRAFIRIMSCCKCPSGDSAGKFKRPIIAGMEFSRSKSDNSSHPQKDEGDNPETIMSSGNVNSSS

Row | SMILES | IC50 [nM]
1 | COc1ccc(C(=O)NC(COCc2ccccc2)C(=O)Nc2ccc(Oc3ccccc3)cc2)c(C)c1 (stereo not shown) [Compound 309, 2-methyl-4-(methyloxy)-N-(2-oxo-1-{[(phenylmethyl)oxy]methyl}-2-{[4-(phenyloxy)phenyl]amino}ethyl)benzamide] | > 1000
2 | O=C(Cc1cnc[nH]1)N[C@@H](COCc1ccccc1)C(=O)Nc1ccc(Oc2ccccc2)cc1 [Compound 143, (S)-2-(2-(1H-imidazol-5-yl)acetamido)-3-benzyloxy-N-(4-phenoxyphenyl)propanamide] | ≤ 300
3 | O=C(NC(COCc1ccccc1)C(=O)Nc1ccc(Oc2ccccc2)cc1)c1cc2ccccc2[nH]1 (stereo not shown) [Compound 386, N-(2-oxo-1-{[(phenylmethyl)oxy]methyl}-2-{[4-(phenyloxy)phenyl]amino}ethyl)-1H-indole-2-carboxamide] | > 1000
4 | O=C(Cc1ccccc1F)N[C@@H](COCc1ccccc1)C(=O)Nc1ccc(Oc2ccccc2)cc1 [Compound 196, (S)-2-(2-(2-fluorophenyl)acetamido)-3-benzyloxy-N-(4-phenoxyphenyl)propanamide] | 300 to 1000
5 | O=C(Nc1ccc(Oc2ccc(F)cc2)cc1)[C@@H]1CN(C(=O)OCc2ccccc2)CCN1C(=O)Cc1c[nH]cn1 [Compound 257, (S)-benzyl 4-(2-(1H-imidazol-4-yl)acetyl)-3-(4-(4-fluorophenoxy)phenylcarbamoyl)piperazine-1-carboxylate] | 300 to 1000
6 | O=C(COc1ccccc1O)NC(COCc1ccccc1)C(=O)Nc1ccc(Oc2ccccc2)cc1 (stereo not shown) [Compound 26, 3-(benzyloxy)-2-(2-(2-hydroxyphenoxy)acetamido)-N-(4-phenoxyphenyl)propanamide] | > 1000
7 | CCCCC(CC)C(=O)NC(COCc1ccccc1)C(=O)Nc1ccc(Oc2ccccc2)cc1 (stereo not shown) [Compound 282, N-(3-(benzyloxy)-1-oxo-1-(4-phenoxyphenylamino)propan-2-yl)-2-ethylhexanamide] | > 1000
8 | Cn1cc(CC(=O)NC(COCc2ccccc2)C(=O)Nc2ccc(Oc3ccccc3)cc2)c2ccccc21 (stereo not shown) [Compound 364, N-(2-oxo-1-{[(phenylmethyl)oxy]methyl}-2-{[4-(phenyloxy)phenyl]amino}ethyl)-2-(1-methyl-1H-indol-3-yl)acetamide] | > 1000
9 | O=C(Cn1nnc2ccccc21)N[C@@H](COCc1ccccc1)C(=O)Nc1ccc(Oc2ccc(F)cc2)cc1 [Compound 151, (S)-2-(2-(1H-benzo[d][1,2,3]triazol-1-yl)acetamido)-3-(benzyloxy)-N-(4-(4-fluorophenoxy)phenyl)propanamide] | ≤ 300
10 | COc1cc(CC(=O)NC(COCc2ccccc2)C(=O)Nc2ccc(Oc3ccccc3)cc2)cc(OC)c1OC (stereo not shown) [Compound 392, N-(2-oxo-1-{[(phenylmethyl)oxy]methyl}-2-{[4-(phenyloxy)phenyl]amino}ethyl)-2-(3,4,5-trimethoxyphenyl)acetamide] | 300 to 1000
11 | O=C(Nc1ccc(Oc2ccc(F)cc2)cc1)[C@@H]1C[C@@H](Cc2ccsc2)CN1C(=O)Cn1cncn1 [Compound 72, (2S,4R)-1-(2-(1H-1,2,4-triazol-1-yl)acetyl)-N-(4-(4-fluorophenoxy)phenyl)-4-(thiophen-3-ylmethyl)pyrrolidine-2-carboxamide] | ≤ 300
12 | Cc1cncc(C(=O)NC(COCc2ccccc2)C(=O)Nc2ccc(Oc3ccccc3)cc2)c1 (stereo not shown) [Compound 18, N-(3-(benzyloxy)-1-oxo-1-(4-phenoxyphenylamino)propan-2-yl)-5-methylnicotinamide] | > 1000
13 | CC(=O)N1CCN(CC(=O)N[C@@H](COCc2ccccc2)C(=O)Nc2ccc(Oc3ccc(F)cc3)cc2)CC1 [Compound 236, (S)-2-(2-(4-acetylpiperazin-1-yl)acetamido)-3-(benzyloxy)-N-(4-(4-fluorophenoxy)phenyl)propanamide] | 300 to 1000
14 | CCOCC(=O)NC(COCc1ccccc1)C(=O)Nc1ccc(Oc2ccccc2)cc1 (stereo not shown) [Compound 338, N-(2-oxo-1-{[(phenylmethyl)oxy]methyl}-2-{[4-(phenyloxy)phenyl]amino}ethyl)-2-ethoxyacetamide] | > 1000
15 | CSc1ccc(C(=O)NC(COCc2ccccc2)C(=O)Nc2ccc(Oc3ccccc3)cc2)cc1 (stereo not shown) [Compound 306, 4-(methylthio)-N-(2-oxo-1-{[(phenylmethyl)oxy]methyl}-2-{[4-(phenyloxy)phenyl]amino}ethyl)benzamide] | > 1000
16 | O=C(Nc1ccc(Oc2ccc(F)cc2)cc1)[C@@H]1C[C@@H](Cc2ccc(Cl)s2)CN1C(=O)Cn1cncn1 [Compound 67, (2S,4S)-1-(2-(1H-1,2,4-triazol-1-yl)acetyl)-4-((5-chlorothien-2-yl)methyl)-N-(4-(4-fluorophenoxy)phenyl)pyrrolidine-2-carboxamide] | ≤ 300
17 | Cc1ccc(OCC(=O)NC(COCc2ccccc2)C(=O)Nc2ccc(Oc3ccccc3)cc2)cc1 (stereo not shown) [Compound 393, N-(2-oxo-1-{[(phenylmethyl)oxy]methyl}-2-{[4-(phenyloxy)phenyl]amino}ethyl)-2-(p-tolyloxy)acetamide] | > 1000
18 | Cc1ccc(Oc2ccc(NC(=O)[C@H](COCc3ccccc3)NC(=O)Cc3c[nH]cn3)cc2)cc1 [Compound 158, (S)-2-(2-(1H-imidazol-5-yl)acetamido)-3-(benzyloxy)-N-(4-(p-tolyloxy)phenyl)propanamide] | ≤ 300
19 | Cc1ccc(C(=O)NC(COCc2ccccc2)C(=O)Nc2ccc(Oc3ccccc3)cc2)cc1F (stereo not shown) [Compound 400, 3-fluoro-4-methyl-N-(2-oxo-1-{[(phenylmethyl)oxy]methyl}-2-{[4-(phenyloxy)phenyl]amino}ethyl)benzamide] | > 1000
20 | O=C(Nc1ccc(Oc2ccc(F)cc2)cc1)[C@@H]1C[C@@H](Cc2ccccc2)CN1C(=O)Cn1nnc2ccccc21 [Compound 176, (2S,4R)-1-(2-(1H-benzo[d][1,2,3]triazol-1-yl)acetyl)-4-benzyl-N-(4-(4-fluorophenoxy)phenyl)pyrrolidine-2-carboxamide] | ≤ 300
21 | O=C(Cn1cnnn1)N[C@@H](COCc1ccccc1)C(=O)Nc1ccc(Oc2ccccc2)cc1 [Compound 144, (S)-2-(2-(1H-tetrazol-1-yl)acetamido)-3-benzyloxy-N-(4-phenoxyphenyl)propanamide] | ≤ 300
22 | CC(C)N1CCN(CC(=O)N[C@@H](COCc2ccccc2)C(=O)Nc2ccc(Oc3ccc(F)cc3)cc2)CC1 [Compound 111, (S)-3-(benzyloxy)-N-(4-(4-fluorophenoxy)phenyl)-2-(2-(4-isopropylpiperazin-1-yl)acetamido)propanamide] | > 1000
23 | O=C(Nc1ccc(Oc2ccc(F)cc2)cc1)[C@@H]1C[C@@H](Cc2ccccc2)CN1C(=O)Cn1ccnn1 [Compound 10, (2S,4R)-1-(2-(1H-1,2,3-triazol-1-yl)acetyl)-4-benzyl-N-(4-(4-fluorophenoxy)phenyl)pyrrolidine-2-carboxamide] | ≤ 300

The remaining lines, values ahead:

Row | IC50 [nM] | SMILES
24 | ≤ 300 | Cc1cccc(C[C@@H]2C[C@@H](C(=O)Nc3ccc(Oc4ccc(F)cc4)cc3)N(C(=O)Cn3cncn3)C2)c1 [Compound 171, (2S,4R)-1-(2-(1H-1,2,4-triazol-1-yl)acetyl)-N-(4-(4-fluorophenoxy)phenyl)-4-(3-methylbenzyl)pyrrolidine-2-carboxamide]
25 | ≤ 300 | O=C(Nc1ccc(Oc2ccc(F)cc2)cc1)[C@@H]1C[C@@H](Cc2ccccc2)CN1C(=O)CN1CCc2ccccc2C1 [Compound 82, (2S,4R)-4-benzyl-1-(2-(3,4-dihydroisoquinolin-2(1H)-yl)acetyl)-N-(4-(4-fluorophenoxy)phenyl)pyrrolidine-2-carboxamide]
26 | ≤ 300 | O=C(Nc1ccc(Oc2ccc(F)cc2)cc1)[C@@H]1C[C@@H](Cc2cccs2)CN1C(=O)Cn1nccn1 [Compound 64, (2S,4S)-1-(2-(2H-1,2,3-triazol-2-yl)acetyl)-N-(4-(4-fluorophenoxy)phenyl)-4-(thien-2-ylmethyl)pyrrolidine-2-carboxamide]
27 | ≤ 300 | O=C(Cc1cnc[nH]1)N[C@@H](CCCc1ccccc1)C(=O)Nc1ccc(Oc2ccc(F)cc2)cc1 [Compound 137, (S)-2-(2-(1H-imidazol-5-yl)acetamido)-5-phenyl-N-(4-(4-fluorophenoxy)phenyl)pentanamide]
28 | ≤ 300 | O=C(Cc1c[nH]cn1)N[C@@H](COCc1ccc(F)cc1)C(=O)Nc1ccc(Oc2ccc(Cl)cc2)cc1 [Compound 132, (S)-2-(2-(1H-imidazol-5-yl)acetamido)-3-(4-fluorobenzyloxy)-N-(4-(4-chlorophenoxy)phenyl)propanamide]
29 | ≤ 300 | Cc1noc(C)c1NC(=O)N[C@@H](COCc1ccccc1)C(=O)Nc1ccc(Oc2ccc(F)cc2)cc1 [Compound 172, (S)-2-(3-(3,5-dimethylisoxazol-4-yl)ureido)-3-benzyloxy-N-(4-(4-fluorophenoxy)phenyl)propanamide]
30 | ≤ 300 | Cn1cnc(CC(=O)N[C@@H](COCc2ccccc2)C(=O)Nc2ccc(Oc3ccccc3)cc2)c1 [Compound 195, (S)-2-(2-(1-methyl-1H-imidazol-4-yl)acetamido)-3-benzyloxy-N-(4-phenoxyphenyl)propanamide]
31 | ≤ 300 | Cc1nc(C)n(CC(=O)N[C@@H](COCc2ccccc2)C(=O)Nc2ccc(Oc3ccc(F)cc3)cc2)n1 [Compound 256, (S)-3-(benzyloxy)-2-(2-(3,5-dimethyl-1H-1,2,4-triazol-1-yl)acetamido)-N-(4-(4-fluorophenoxy)phenyl)propanamide]
32 | 300 to 1000 | O=C(CN1CCSC1)N[C@@H](COCc1ccccc1)C(=O)Nc1ccc(Oc2ccc(F)cc2)cc1 [Compound 235, (S)-3-(benzyloxy)-N-(4-(4-fluorophenoxy)phenyl)-2-(2-(thiazolidin-3-yl)acetamido)propanamide]
33 | ≤ 300 | Cc1[nH]c2ccccc2c1CC(=O)N1C[C@H](Cc2ccccc2)C[C@H]1C(=O)Nc1ccc(Oc2ccc(F)cc2)cc1 [Compound 37, (2S,4R)-4-benzyl-N-(4-(4-fluorophenoxy)phenyl)-1-(2-(2-methyl-1H-indol-3-yl)acetyl)pyrrolidine-2-carboxamide]
34 | ≤ 300 | O=C(Nc1ccc(Oc2ccc(F)cc2)cc1)[C@@H]1C[C@@H](Cc2ccc(Cl)cc2)CN1C(=O)Cn1nccn1 [Compound 227, (2S,4R)-1-(2-(2H-1,2,3-triazol-2-yl)acetyl)-4-(4-chlorobenzyl)-N-(4-(4-fluorophenoxy)phenyl)pyrrolidine-2-carboxamide]
